In patent publication US8568806B2, “Stable and bioavailable compositions of isomers of lycopene for skin and hair” (Indena, S.p.A., priority 2006, dated 2013):

Assay: Stability of pure lycopene isomers in n-hexane during storage at room temperature
Assay type: physicochemical
Conditions: storage in n-hexane at room temperature in the absence of light
Procedure: Pure 5-Z, 9-Z, 13-Z and all-E lycopene were isolated from isomerised tomato oleoresin (submitted to 1 hour heating), by collecting the fractions containing the corresponding peaks after HPLC separation (see below the experimental conditions). Peaks were collected during two consecutive HPLC runs and the corresponding fractions were pooled.
Lycopene isomer profiles were determined by normal phase HPLC according to the method described by Schierle et al. (Schierle, J., Bretzel, W., Buhler, I., Faccin, N., Hess, D., Steiner, K., Schuep, W. (1997). Food. Chem. 59: 459). Samples of isomerized oleoresins were dissolved in n-hexane containing 50 ppm BHT and spun at maximum speed in an Eppendorf Lab centrifuge. The resulting supernatants were immediately analyzed by HPLC. The HPLC system used was a 1100 series Hewlett-Packard model equipped with an ultraviolet-visible photodiode array detector. Data were simultaneously acquired at 470 nm, 464 nm, 346 nm and 294 nm. […]
Amounts of lycopene isomers were calculated based on surface areas of the HPLC peaks using the same extinction coefficient as the all-E lycopene. […]
Stability of lycopene isomers was investigated both in n-hexane and in a tomato oleoresin isomerized by 4 hour heating in ethyl acetate. […] Total lycopene concentration and lycopene isomer profiles were measured at various time intervals during the storage. […]

relative stability of the isomer: less stable isomer
Structure (SMILES): CC(C)=CCC/C(C)=C/C=C/C(C)=C/C=C/C(C)=C\C=C\C=C(C)\C=C\C=C(C)\C=C\C=C(/C)CCC=C(C)C [13-Z lycopene]
